Results taken from patent US20260049068A1, “Substituted Tetrazolyl Compounds Useful as T Cell Activators” (BRISTOL-MYERS SQUIBB COMPANY, priority 2022, published 2026).

How the values were obtained:
DGKα-YFP in Jurkat cells = DGKα-YFP in Jurkat cells (Homo sapiens (Human), UniProt P23743); experiment: In vitro DGKα translocation assay; format: cell-based; settings: 1 hour at 37° C., top concentration 10 μM, read-out: DGKalpha Translocation EC50
Text: Jurkat cells were transduced with lentiviral constructs overexpressing DGKα-YFP (N-terminal tagged), selected by puromycin, and were FACs sorted to establish stable lines expressing each isoform (Jurkat-DGKα-YFP=BXA-212700-01-001, Jurkat-DGKz-YFP=BXA-212701-01-001). Cell lines were maintained in growth media (RPMI supplemented with 10% FBS and pen/strep). All translocation assays were run in assay media (RPMI supplemented with 10% FBS and no antibiotics).
For translocation assays cells were plated onto Perkin Elmer CellCarrier-384 Ultra Microplates (Perkin Elmer cat #6057500) at a density of 30,000 cells/well, in a volume of 40 μL of assay media. Compounds were then transferred to the cells by an Echo Acoustic Liquid Handler (Echo 655). […] Treated cells were then incubated at 37° C. for 1 hour. Cells were then fixed with 4% formaldehyde (Thermo cat #28906) for 15 minutes, centrifuged briefly to increase cell retention (250 rpm for 5 minutes), and then washed 3× with 50 μL PBS. Cells were then stained with Hoechst, and washed 2× with 50 ul PBS. Next, 50 μL PBS was added to each well, plates were sealed, and plates were imaged on an Opera Phenix High Content screening system. Imaging was done with the 40× water objective. The YFP channel was set at 100% power for […], 10 regions/well were imaged and analyzed. Data analysis was done with Columbus Image Analysis software (Perk-in Elmer).

Full length human DGKα = Full length human DGKα (Homo sapiens (Human), UniProt P23743);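 note: ADP-Glo luminescence assay of ADP formed by 5 nM full-length DGKα on extruded PS/DAG/PC liposomes with 150 µM ATP, 1 h reaction, 11-point inhibitor titration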
Method: The DGKα (Full Length and Near Full Length) ADP Glo assays were performed using an extruded liposome prep at either 5% DAG or 10% DAG. The Enzymatic reactions were carried out in 50 mM MOPS pH 7.5, 100 mM NaCl, 10 mM MgCl2, 1 μM CaCl2, and 1 mM DTT (assay buffer). The lipid substrate concentrations were 1.9 mM PS, either 0.25 mM DAG (5% liposome prep) or 0.5 mM DAG (10% liposome prep), and 2.7 mM PC for the extruded liposome reactions. The reactions were carried out at 150 μM ATP. The enzyme concentrations for the DGKα(Near Full Length) and DGKα(FL) were 5 nM.
The compound inhibition studies were carried out as follows: 25 nL droplets of each test compound (11 point, 3-fold dilution series for each compound) solubilized in DMSO were transferred to wells of a white 1536 well plate (Corning 3725). A 5 mL enzyme/substrate (substrate being the 5× or 10× liposome preparation) solution at 2× final reaction concentrations was prepared by combining 5 ml of the extruded liposome preparation with 10 nM (2× final) DGKα(Near Full Length) or DGKα(Full Length) prepared as described below) and incubated at room temperature for 10 minutes. Next, 1 μL of the 2× enzyme/substrate solution was added to wells containing the test compound and reactions were initiated with the addition of 1 μL 300 uM ATP. Substrate only was added to DMSO only wells for background measurements. The reactions were allowed to proceed for 1 hr, after which 2 μL Glo Reagent (Promega V9101) was added and incubated for 40 minutes. Next, 4 μL Kinase Detection Reagent was added and incubated for 30 minutes. Luminescence was recorded using an EnVision microplate reader. […] The compounds were evaluated at 11 concentrations to determine IC50.

[1] = target: Near full length human DGKα(S9-S727) (Homo sapiens (Human), UniProt P23743); experiment: DGKα (Near Full Length) ADP Glo assay; format: biochemical; settings: extruded liposomes 5% or 10% DAG, 150 μM ATP, 5 nM enzyme; read-out: Near Full Length DGKalpha ADPGLO IC50
Method: The reactions were carried out at 150 μM ATP.
Luminescence was recorded using an EnVision microplate reader.

DGKα-YFP in Jurkat cells, sequence (P23743 whole entry, canonical isoform): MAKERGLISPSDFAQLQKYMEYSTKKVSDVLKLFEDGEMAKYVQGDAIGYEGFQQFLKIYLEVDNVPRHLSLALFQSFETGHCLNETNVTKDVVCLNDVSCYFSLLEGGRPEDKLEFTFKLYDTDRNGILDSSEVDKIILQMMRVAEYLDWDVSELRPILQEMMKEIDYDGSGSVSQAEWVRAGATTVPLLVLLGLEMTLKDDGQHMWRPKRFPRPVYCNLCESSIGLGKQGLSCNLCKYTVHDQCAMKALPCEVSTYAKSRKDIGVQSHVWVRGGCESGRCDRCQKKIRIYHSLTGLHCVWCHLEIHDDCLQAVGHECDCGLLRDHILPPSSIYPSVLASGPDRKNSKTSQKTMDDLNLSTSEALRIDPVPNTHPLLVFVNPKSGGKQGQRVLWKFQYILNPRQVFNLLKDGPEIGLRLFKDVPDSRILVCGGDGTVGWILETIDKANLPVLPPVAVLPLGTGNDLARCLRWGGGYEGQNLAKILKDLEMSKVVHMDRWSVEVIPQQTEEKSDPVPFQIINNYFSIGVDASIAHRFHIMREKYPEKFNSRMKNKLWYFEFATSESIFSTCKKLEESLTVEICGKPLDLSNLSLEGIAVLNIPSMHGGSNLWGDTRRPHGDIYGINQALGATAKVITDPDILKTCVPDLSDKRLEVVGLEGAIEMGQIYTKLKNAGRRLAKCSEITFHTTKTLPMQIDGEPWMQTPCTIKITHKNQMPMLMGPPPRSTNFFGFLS
Near full length human DGKα(S9-S727), sequence (P23743 9-727): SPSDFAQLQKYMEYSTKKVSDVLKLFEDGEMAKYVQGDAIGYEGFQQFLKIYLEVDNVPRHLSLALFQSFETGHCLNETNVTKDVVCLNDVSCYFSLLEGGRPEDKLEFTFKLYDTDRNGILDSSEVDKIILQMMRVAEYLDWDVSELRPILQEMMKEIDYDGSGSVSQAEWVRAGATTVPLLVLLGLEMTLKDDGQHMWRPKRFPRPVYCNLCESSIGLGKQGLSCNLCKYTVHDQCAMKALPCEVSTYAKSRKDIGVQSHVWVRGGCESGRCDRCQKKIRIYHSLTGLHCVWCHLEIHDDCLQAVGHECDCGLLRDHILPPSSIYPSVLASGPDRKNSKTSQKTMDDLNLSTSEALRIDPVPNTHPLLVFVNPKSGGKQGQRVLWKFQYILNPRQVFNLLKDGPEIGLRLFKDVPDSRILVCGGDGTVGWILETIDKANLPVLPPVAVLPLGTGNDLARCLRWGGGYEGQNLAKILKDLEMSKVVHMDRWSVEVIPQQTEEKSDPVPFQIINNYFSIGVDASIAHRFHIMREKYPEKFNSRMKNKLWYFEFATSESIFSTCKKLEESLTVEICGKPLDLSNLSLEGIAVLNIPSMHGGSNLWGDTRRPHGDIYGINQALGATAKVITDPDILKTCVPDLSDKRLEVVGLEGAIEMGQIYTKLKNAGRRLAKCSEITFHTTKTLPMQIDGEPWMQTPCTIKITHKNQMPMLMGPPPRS
Full length human DGKα, sequence (P23743 other isoform, or with tags, fused parts or gaps): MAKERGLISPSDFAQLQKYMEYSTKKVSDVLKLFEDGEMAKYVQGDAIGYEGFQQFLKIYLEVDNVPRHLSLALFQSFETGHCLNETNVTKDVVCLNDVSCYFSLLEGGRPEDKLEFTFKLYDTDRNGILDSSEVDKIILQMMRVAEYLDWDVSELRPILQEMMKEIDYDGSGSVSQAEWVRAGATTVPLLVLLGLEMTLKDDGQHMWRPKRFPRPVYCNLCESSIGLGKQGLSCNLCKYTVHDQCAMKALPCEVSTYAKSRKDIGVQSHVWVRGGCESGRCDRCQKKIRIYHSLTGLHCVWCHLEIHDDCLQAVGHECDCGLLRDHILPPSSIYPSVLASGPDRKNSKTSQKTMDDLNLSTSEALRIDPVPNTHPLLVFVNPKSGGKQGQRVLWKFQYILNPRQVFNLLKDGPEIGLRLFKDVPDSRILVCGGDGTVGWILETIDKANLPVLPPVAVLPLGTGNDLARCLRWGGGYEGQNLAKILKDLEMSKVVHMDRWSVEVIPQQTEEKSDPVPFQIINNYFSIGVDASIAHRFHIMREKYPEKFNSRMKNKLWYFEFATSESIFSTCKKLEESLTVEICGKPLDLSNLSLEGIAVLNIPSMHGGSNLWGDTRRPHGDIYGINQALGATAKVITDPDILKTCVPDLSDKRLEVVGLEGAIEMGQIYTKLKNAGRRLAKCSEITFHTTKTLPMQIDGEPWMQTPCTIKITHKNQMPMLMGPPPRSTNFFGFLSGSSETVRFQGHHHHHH

Row | EC50 (DGKα-YFP in Jurkat cells) [µM] | IC50 (Full length human DGKα) [µM] | IC50 [1] [µM] | SMILES
1 | 0.3 |  |  | CC1CCC(N(C)Cc2nnnn2-c2cccc([N+](=O)[O-])c2)CC1 (stereo not drawn) [Example 2, N,4-dimethyl-N-((1-(3-nitrophenyl)-1H-tetrazol-5-yl)methyl)cyclohexan-1-amine]
2 |  | 56 |  | CN(Cc1nnnn1-c1cc(C#N)c(=O)n(C)c1)C1CCCCC1 [Example 48, 5-(5-((cyclohexyl(methyl)amino)methyl)-1H-tetrazol-1-yl)-1-methyl-2-oxo-1,2-dihydropyridine-3-carbonitrile]
3 | 1.7 | 0.9 | 0.86 | COc1ccc(-n2nnnc2CN(C)C2CCCCC2)cc1C#N [Example 24, 5-(5-((cyclohexyl(methyl)amino)methyl)-1H-tetrazol-1-yl)-2-methoxybenzonitrile]
4 | > 10 | 4.7 | 3.4 | N#Cc1cc(-n2nnnc2CN(CCO)C2CCCCC2)ccc1Cl [Example 7, 2-chloro-5-(5-((cyclohexyl(2-hydroxyethyl)amino)methyl)-1H-tetrazol-1-yl)benzonitrile]
5 |  | 11 |  | N#Cc1cc(-n2nnnc2CN(CC(O)c2ccccc2)C2CCCCC2)ccc1Cl (stereo not drawn) [Example 52, 2-chloro-5-(5-((cyclohexyl(2-hydroxy-2-phenylethyl)amino)methyl)-1H-tetrazol-1-yl)benzonitrile]
6 | > 5 | 9.7 | 11 | CN(Cc1nnnn1-c1cccc(C(F)(F)F)c1)C1CCCCC1 [Example 18, N-methyl-N-((1-(3-(trifluoromethyl)phenyl)-1H-tetrazol-5-yl)methyl) cyclohexanamine]
7 | > 5 | 6.5 | 3.6 | CN(Cc1nnnn1-c1ccc(C(F)(F)F)nc1)C1CCCCC1 [Example 23, N-methyl-N-((1-(6-(trifluormethyl)pyridin-3-yl)-1H-tetrazol-5-yl)methyl) cyclohexanamine]
8 |  | 13 |  | CN(Cc1nnnn1-c1ccc([N+](=O)[O-])cc1)C1CCCCC1 [Example 32, N-methyl-N-((1-(4-nitrophenyl)-1H-tetrazol-5-yl)methyl)cyclohexanamine]
9 | 0.49 |  |  | CN(Cc1nnnn1-c1cc(C#N)cc([N+](=O)[O-])c1)C1CCCCC1 [Example 27, 3-(5-((cyclohexyl(methyl)amino)methyl)-1H-tetrazol-1-yl)-5-nitrobenzonitrile]
10 |  | > 81 |  | CN(Cc1nnnn1-c1cccc(C(=O)O)c1)C1CCCCC1 [Example 34, 3-(5-((cyclohexyl (methyl)amino)methyl)-1H-tetrazol-1-yl)benzoic acid]
11 |  | 67 |  | CC(C)N(C)Cc1nnnn1-c1ccc(Cl)c(C#N)n1 [Example 60, 3-chloro-6-(5-((isopropyl(methyl)amino)methyl)-1H-tetrazol-1-yl)picolinonitrile]
12 |  | 13 |  | CCOC(=O)C1CCC(N(Cc2nnnn2-c2ccc(Cl)c(C#N)c2)C2CC2)CC1 (stereo not drawn) [Example 51, ethyl 4-(((1-(4-chloro-3-cyanophenyl)-1H-tetrazol-5-yl)methyl)(cyclopropyl)amino) cyclohexane-1-carboxylate]
13 | 1.8 | 2 | 1.1 | CN(Cc1nnnn1-c1ccc(Cl)c(C#N)n1)C1CCCCC1 [Example 14, 3-chloro-6-(5-((cyclohexyl(methyl)amino)methyl)-1H-tetrazol-1-yl)picolinonitrile]
14 |  | 11 |  | CN(Cc1nnnn1-c1cccc(Cl)c1)C1CCCCC1 [Example 36, N-((1-(3-chlorophenyl)-1H-tetrazol-5-yl)methyl)-N-methylcyclohexanamine]
15 | 0.47 |  |  | C=CCN(Cc1nnnn1-c1ccc(Cl)c(C#N)n1)C1CCCCC1 [Example 17, 6-(5-((allyl (cyclohexyl)amino)methyl)-1H-tetrazol-1-yl)-3-chloropicolinonitrile]
16 |  | > 240 |  | COC(=O)c1cccc(-n2nnnc2CN(C)C2CCCCC2)c1 [Example 33, methyl 3-(5-((cyclohexyl(methyl)amino)methyl)-1H-tetrazol-1-yl)benzoate]
17 |  | 70 |  | N#Cc1nc(-n2nnnc2CN(CCCNC(=O)c2ccccc2)C2CCCCC2)ccc1Cl [Example 54, N-(3-(((1-(5-chloro-6-cyanopyridin-2-yl)-1H-tetrazol-5-yl)methyl)(cyclohexyl)amino)propyl)benzamide]
18 |  | 24 |  | CC(C)CN(C)Cc1nnnn1-c1ccc(Cl)c(C#N)n1 [Example 61, 3-chloro-6-(5-((isobutyl(methyl)amino)methyl)-1H-tetrazol-1-yl)picolinonitrile]

Row | EC50 (DGKα-YFP in Jurkat cells) [µM] | IC50 (Full length human DGKα) [µM] | IC50 [1] [µM] | SMILES
19 | 0.57 | 3.5 | 1.7 | CN(Cc1nnnn1-c1ccc(Cl)cc1)C1CCCCC1 [Example 29, N-((1-(4-chlorophenyl)-1H-tetrazol-5-yl)methyl)-N-methylcyclohexanamine]
20 |  | 56 |  | COc1ccc(-n2nnnc2CN(C)C2CCCCC2)cc1 [Example 31, N-((1-(4-methoxyphenyl)-1H-tetrazol-5-yl)methyl)-N-methylcyclohexanamine]
21 | 1.7 | 7.9 | 11 | CC(C)N(Cc1nnnn1-c1ccc(Cl)c(C#N)c1)C1CCCCC1 [Example 12, 2-chloro-5-(5-((cyclohexyl(isopropyl)amino)methyl)-1H-tetrazol-1-yl)benzonitrile]
22 | 0.63 | 0.25 | 0.24 | N#Cc1cc(-n2nnnc2CN(CC2CC2)C2CCCCC2)ccc1Cl [Example 10, 2-chloro-5-(5-((cyclohexyl(cyclopropylmethyl)amino)methyl)-1H-tetrazol-1-yl)benzonitrile]
23 | 1.2 | 5.3 | 3.2 | CC(C)CN(C)Cc1nnnn1-c1ccc(Cl)c(C#N)c1 [Example 9, 2-chloro-5-(5-((isobutyl(methyl)amino)methyl)-1H-tetrazol-1-yl)benzonitrile]
24 |  | 15 |  | CCCN(Cc1nnnn1-c1ccc(Cl)c(C#N)n1)C1CCCCC1 [Example 53, 3-chloro-6-(5-((cyclohexyl(propyl)amino)methyl)-1H-tetrazol-1-yl)picolinonitrile]
25 |  | 180 |  | C[C@]1(O)CC[C@@H](N(Cc2nnnn2-c2ccc(Cl)c(C#N)n2)C2CC2)CC1 [Example 59, 3-chloro-6-(5-((cyclopropyl((1s,4s)-4-hydroxy-4-methylcyclohexyl)amino)methyl)-1H-tetrazol-1-yl)picolinonitrile]
26 |  | 12 |  | CN(Cc1nnnn1-c1cccc(Br)c1)C1CCCCC1 [Example 45, N-((1-(3-bromophenyl)-1H-tetrazol-5-yl)methyl)-N-methylcyclohexanamine]
27 |  | 72 |  | O=[N+]([O-])c1cccc(-n2nnnc2CN(CCO)C2CCCCC2)c1 [Example 43, 2-(cyclohexyl((1-(3-nitrophenyl)-1H-tetrazol-5-yl)methyl)amino)ethan-1-ol]
28 | > 10 |  |  | CN(Cc1nnnn1-c1ccc(Cl)cc1C#N)C1CCCCC1 [Example 30, 5-chloro-2-(5-((cyclohexyl(methyl)amino)methyl)-1H-tetrazol-1-yl)benzonitrile]
29 |  | 15 |  | CCCCN(Cc1nnnn1-c1ccc(Cl)c(C#N)n1)C1CCCCC1 [Example 63, 6-(5-((butyl(cyclohexyl)amino)methyl)-1H-tetrazol-1-yl)-3-chloropicolinonitrile]
30 |  | 11 |  | CCOC(=O)C1CCC(N(Cc2nnnn2-c2ccc(Cl)c(C#N)n2)C2CC2)CC1 (stereo not drawn) [Example 56, ethyl 4-(((1-(5-chloro-6-cyanopyridin-2-yl)-1H-tetrazol-5-yl)methyl)(cyclopropyl)amino) cyclohexane-1-carboxylate]
31 |  | 54 |  | CC1CCC(C)N1Cc1nnnn1-c1ccc(Cl)c(C#N)c1 (stereo not drawn) [Example 50, 2-chloro-5-(5-((2,5-dimethylpyrrolidin-1-yl)methyl)-1H-tetrazol-1-yl)benzonitrile]
32 |  | 16 |  | CN(Cc1nnnn1-c1ccc(F)nc1)C1CCCCC1 [Example 46, N-((1-(6-fluoropyridin-3-yl)-1H-tetrazol-5-yl)methyl)-N-methylcyclohexanamine]
33 |  | 46 |  | CC(C)N(Cc1nnnn1-c1ccc(Cl)c(C#N)n1)C1CCCCC1 [Example 55, 3-chloro-6-(5-((cyclohexyl(isopropyl)amino)methyl)-1H-tetrazol-1-yl)picolinonitrile]
34 |  | 17 |  | CN(Cc1nnnn1-c1ccc(Cl)c(C(F)(F)F)c1)C1CCCCC1 [Example 49, N-((1-(4-chloro-3-(trifluoromethyl)phenyl)-1H-tetrazol-5-yl)methyl)-N-methylcyclohexanamine]
35 |  | 110 |  | N#Cc1nc(-n2nnnc2CN(CCO)C2CCCCC2)ccc1Cl [Example 62, 3-chloro-6-(5-((cyclohexyl(2-hydroxyethyl)amino)methyl)-1H-tetrazol-1-v) picolinonitrile]
36 |  | 50 |  | Cc1cccc(-n2nnnc2CN(C)C2CCCCC2)c1 [Example 35, N-methyl-N-((1-(m-tolyl)-1H-tetrazol-5-yl)methyl)cyclohexanamine]
